Measured values taken from patent publication US9795140B2, “Molecules having pesticidal utility, and intermediates, compositions, and processes, related thereto” (priority 2015, dated 2017).

Legend:
Format in all cases: in vivo
[1] = test system: Yellow Fever Mosquito (Aedes aegypti, AEDSAE); assay: Bioassay on Yellow Fever Mosquito (YFM) larvae, 96-well plate; conditions: about 1 day-old larvae, room temperature, 3 days, scored on mortality
Method in brief: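 Compound stocks at 4000 ppm in DMSO were diluted with 90:10 water/acetone, and 15 μL aliquots were dispensed into six replicate plates. About 1-day-old larvae in liver-powder water were added per well. Plates were covered and held at room temperature for 3 days before each well was scored for mortality.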

[2] = test system: Beet Armyworm (Spodoptera exigua, LAPHEG); assay: Bioassay on Beet Armyworm (BAW), 128-well diet tray assay; conditions: 168 h, 50 μg/cm^2 on artificial diet, second instar larvae, 25° C., five to seven days, average of eight wells, read-out: BAW % Control (or Mortality) rating
Method in brief: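 Second instar larvae were exposed to diet treated at 50 μg/cm^2 for five to seven days at 25° C.; mortality was averaged over eight wells.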

[3] = test system: Cabbage Looper (Trichoplusia ni, TRIPNI); assay: Bioassay on Cabbage Looper (CL), 128-well diet tray assay; conditions: 168 h, 50 μg/cm^2 on artificial diet, second instar larvae, 25° C., five to seven days, average of eight wells, read-out: CL % Control (or Mortality) rating
Method in brief: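 Second-instar T. ni larvae (one to five per well) were placed on artificial diet treated with 50 μg/cm^2 compound, applied in 90:10 acetone-water and dried. Trays were held five to seven days at 25 °C under 14:10 light-dark. Percent mortality per well was averaged over eight wells.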

## O=C(NCC(F)(F)F)c1cc(NC(=O)[C@H]2[C@H](c3cc(Cl)cc(C(F)F)c3)C2(Cl)Cl)ccc1Cl (relative stereo) [F128, 2-Chloro-5-(trans-2,2-dichloro-3-(3-chloro-5-(difluoromethyl)phenyl)cyclopropane-1-carboxamido)-N-(2,2,2-trifluoroethyl)benzamide]
[1]
  YFM % Control (or Mortality) rating: A (80-100)
[2]
  mortality at 50 µg/cm2: 50 to 100%
[3]
  mortality at 50 µg/cm2: 50 to 100%

## O=C(NCC(F)(F)F)c1cc(NC(=O)[C@H]2[C@H](c3ccc(Cl)c(C(F)F)c3)C2(Cl)Cl)ccc1Cl (relative stereo) [F129, 2-Chloro-5-(trans-2,2-dichloro-3-(4-chloro-3-(difluoromethyl)phenyl)cyclopropane-1-carboxamido)-N-(2,2,2-trifluoroethyl)benzamide]
[1]
  YFM % Control (or Mortality) rating: A (80-100)
[2]
  mortality at 50 µg/cm2: 50 to 100%
[3]
  mortality at 50 µg/cm2: 50 to 100%

## O=C(NCC(F)(F)F)c1cc(NC(=O)[C@H]2[C@H](c3cc(F)cc(C(F)F)c3)C2(Cl)Cl)ccc1Cl (relative stereo) [F130, 2-Chloro-5-(trans-2,2-dichloro-3-(3-(difluoromethyl)-5-fluorophenyl)cyclopropane-1-carboxamido)-N-(2,2,2-trifluoroethyl)benzamide]
[1]
  YFM % Control (or Mortality) rating: A (80-100)
[2]
  mortality at 50 µg/cm2: 50 to 100%
[3]
  mortality at 50 µg/cm2: 50 to 100%

## O=C(NCC(F)(F)F)c1cc(NC(=O)[C@H]2[C@H](c3ccc(F)c(C(F)F)c3)C2(Cl)Cl)ccc1Cl (relative stereo) [F131, 2-Chloro-5-(trans-2,2-dichloro-3-(3-(difluoromethyl)-4-fluorophenyl)cyclopropane-1-carboxamido)-N-(2,2,2-trifluoroethyl)benzamide]
[1]
  YFM % Control (or Mortality) rating: A (80-100)
[2]
  mortality at 50 µg/cm2: 50 to 100%
[3]
  mortality at 50 µg/cm2: 50 to 100%

## O=C(NCC(F)(F)F)c1cc(NC(=O)[C@H]2[C@H](c3ccc(C(F)F)c(Cl)c3)C2(Cl)Cl)ccc1Cl (relative stereo) [F132, 2-Chloro-5-(trans-2,2-dichloro-3-(3-chloro-4-(difluoromethyl)phenyl)cyclopropane-1-carboxamido)-N-(2,2,2-trifluoroethyl)benzamide]
[1]
  YFM % Control (or Mortality) rating: A (80-100)
[2]
  mortality at 50 µg/cm2: 50 to 100%
[3]
  mortality at 50 µg/cm2: 50 to 100%

## O=C(NCC(F)(F)F)c1cc(NC(=O)[C@H]2[C@H](c3ccc(C(F)F)c(F)c3)C2(Cl)Cl)ccc1Cl (relative stereo) [F133, 2-Chloro-5-(trans-2,2-dichloro-3-(4-(difluoromethyl)-3-fluorophenyl)cyclopropane-1-carboxamido)-N-(2,2,2-trifluoroethyl)benzamide]
[1]
  YFM % Control (or Mortality) rating: A (80-100)
[2]
  mortality at 50 µg/cm2: 50 to 100%
[3]
  mortality at 50 µg/cm2: 50 to 100%

## O=C(NCC(F)(F)F)c1cc(NC(=O)[C@H]2[C@H](c3cccc(C(F)F)c3)C2(Cl)Cl)ccc1Cl (relative stereo) [F134, 2-Chloro-5-(trans-2,2-dichloro-3-(3-(difluoromethyl)phenyl)cyclopropane-1-carboxamido)-N-(2,2,2-trifluoroethyl)benzamide]
[1]
  YFM % Control (or Mortality) rating: A (80-100)
[2]
  mortality at 50 µg/cm2: 50 to 100%
[3]
  mortality at 50 µg/cm2: 50 to 100%

## O=C(NCC(F)(F)F)c1cc(NC(=O)[C@H]2[C@H](c3ccc(C(F)F)cc3)C2(Cl)Cl)ccc1Cl (relative stereo) [F135, 2-Chloro-5-(trans-2,2-dichloro-3-(4-(difluoromethyl)phenyl)cyclopropane-1-carboxamido)-N-(2,2,2-trifluoroethyl)benzamide]
[1]
  YFM % Control (or Mortality) rating: A (80-100)
[2]
  mortality at 50 µg/cm2: 0%
[3]
  mortality at 50 µg/cm2: 50 to 100%

## O=C(NCC(F)(F)F)c1cc(NC(=O)[C@H]2[C@H](c3cc(Cl)cc(Cl)c3)C2(Br)Br)ccc1Cl (relative stereo) [PF1, trans-2-Chloro-5-(2,2-dibromo-3-(3,5-dichlorophenyl)cyclopropane-1-carboxamido)-N-(2,2,2-trifluoroethyl)benzamide]
[1]
  YFM % Control (or Mortality) rating: D (No activity noticed in this bioassay)
[2]
  mortality at 50 µg/cm2: 50 to 100%
[3]
  mortality at 50 µg/cm2: 50 to 100%

## O=C(NCCSCc1ccco1)c1cc(NC(=O)[C@H]2[C@H](c3cc(Cl)cc(Cl)c3)C2(Cl)Cl)ccc1Cl (relative stereo) [PF9, trans-2-Chloro-5-(2,2-dichloro-3-(3,5-dichlorophenyl)cyclopropane-1-carboxamido)-N-(2-((furan-2-ylmethyl)thio)ethyl)benzamide]
[1]
  YFM % Control (or Mortality) rating: A (80-100)
[2]
  mortality at 50 µg/cm2: 50 to 100%
[3]
  mortality at 50 µg/cm2: 50 to 100%

## COC(=O)C(CCSC)NC(=O)c1cc(NC(=O)[C@H]2[C@H](c3cc(Cl)cc(Cl)c3)C2(Cl)Cl)ccc1Cl (relative stereo) [PF10, trans-Methyl-2-(2-chloro-5-(2,2-dichloro-3-(3,5-dichlorophenyl)cyclopropane-1-carboxamido)benzamido)-4-(methylthio)butanoate]
[1]
  YFM % Control (or Mortality) rating: B (More than 0-Less than 80)
[2]
  mortality at 50 µg/cm2: 50 to 100%
[3]
  mortality at 50 µg/cm2: 50 to 100%

## O=C(NCc1ccc(-n2cncn2)cc1)c1cc(NC(=O)[C@H]2[C@H](c3cc(Cl)cc(Cl)c3)C2(Cl)Cl)ccc1Cl (relative stereo) [PF11, trans-N-(4-(1H-1,2,4-Triazol-1-yl)benzyl)-2-chloro-5-(2,2-dichloro-3-(3,5-dichlorophenyl)cyclopropane-1-carboxamido)benzamide]
[1]
  YFM % Control (or Mortality) rating: A (80-100)
[2]
  mortality at 50 µg/cm2: 50 to 100%
[3]
  mortality at 50 µg/cm2: 50 to 100%

## O=C(NCCc1nccs1)c1cc(NC(=O)[C@H]2[C@H](c3cc(Cl)cc(Cl)c3)C2(Cl)Cl)ccc1Cl (relative stereo) [PF12, trans-2-Chloro-5-(2,2-dichloro-3-(3,5-dichlorophenyl)cyclopropane-1-carboxamido)-N-(2-(thiazol-2-yl)ethyl)benzamide]
[1]
  YFM % Control (or Mortality) rating: A (80-100)
[2]
  mortality at 50 µg/cm2: 50 to 100%
[3]
  mortality at 50 µg/cm2: 50 to 100%

## O=C(NCCn1cccn1)c1cc(NC(=O)[C@H]2[C@H](c3cc(Cl)cc(Cl)c3)C2(Cl)Cl)ccc1Cl (relative stereo) [PF13, trans-N-(2-(1H-Pyrazol-1-yl)ethyl)-2-chloro-5-(2,2-dichloro-3-(3,5-dichlorophenyl)cyclopropane-1-carboxamido)benzamide]
[1]
  YFM % Control (or Mortality) rating: A (80-100)
[2]
  mortality at 50 µg/cm2: 50 to 100%
[3]
  mortality at 50 µg/cm2: 50 to 100%

## NS(=O)(=O)CCCNC(=O)c1cc(NC(=O)[C@H]2[C@H](c3cc(Cl)cc(Cl)c3)C2(Cl)Cl)ccc1Cl (relative stereo) [PF14, trans-2-Chloro-5-(2,2-dichloro-3-(3,5-dichlorophenyl)cyclopropane-1-carboxamido)-N-(3-sulfamoylpropyl)benzamide]
[1]
  YFM % Control (or Mortality) rating: D (No activity noticed in this bioassay)
[2]
  mortality at 50 µg/cm2: 0 to 50%
[3]
  mortality at 50 µg/cm2: 50 to 100%

## O=C(NCCc1csc2ccccc12)c1cc(NC(=O)[C@H]2[C@H](c3cc(Cl)cc(Cl)c3)C2(Cl)Cl)ccc1Cl (relative stereo) [PF15, trans-N-(2-(Benzo[b]thiophen-3-yl)ethyl)-2-chloro-5-(2,2-dichloro-3-(3,5-dichlorophenyl)cyclopropane-1-carboxamido)benzamide]
[1]
  YFM % Control (or Mortality) rating: A (80-100)
[2]
  mortality at 50 µg/cm2: 50 to 100%
[3]
  mortality at 50 µg/cm2: 50 to 100%

## C[C@H](CSCCC(F)(F)F)NC(=O)c1cc(NC(=O)C2C(c3cc(Cl)cc(Cl)c3)C2(Cl)Cl)ccc1Cl (stereo in doubt) [PF2, trans-2-Chloro-5-(2,2-dichloro-3-(3,5-dichlorophenyl)cyclopropane-1-carboxamido)-N—((R)-1-((3,3,3-trifluoropropyl)thio)propan-2-yl)benzamide]
[1]
  YFM % Control (or Mortality) rating: A (80-100)
[2]
  mortality at 50 µg/cm2: 50 to 100%
[3]
  mortality at 50 µg/cm2: 50 to 100%

## C[C@H](CS(=O)(=O)CCC(F)(F)F)NC(=O)c1cc(NC(=O)C2C(c3cc(Cl)cc(Cl)c3)C2(Cl)Cl)ccc1Cl (stereo in doubt) [PF4, trans-2-Chloro-5-(2,2-dichloro-3-(3,5-dichlorophenyl)cyclopropane-1-carboxamido)-N—((R)-1-((3,3,3-trifluoropropyl)sulfonyl)propan-2-yl)benzamide]
[1]
  YFM % Control (or Mortality) rating: A (80-100)
[2]
  mortality at 50 µg/cm2: 50 to 100%
[3]
  mortality at 50 µg/cm2: 50 to 100%

## C[C@H](C[S+]([O-])CCC(F)(F)F)NC(=O)c1cc(NC(=O)C2C(c3cc(Cl)cc(Cl)c3)C2(Cl)Cl)ccc1Cl (stereo in doubt) [PF5, trans-2-Chloro-5-(2,2-dichloro-3-(3,5-dichlorophenyl)cyclopropane-1-carboxamido)-N-((2R)-1-((3,3,3-trifluoropropyl)sulfinyl)propan-2-yl)benzamide]
[1]
  YFM % Control (or Mortality) rating: A (80-100)
[2]
  mortality at 50 µg/cm2: 50 to 100%
[3]
  mortality at 50 µg/cm2: 50 to 100%

## C[C@H](C[S+]([O-])CC(F)(F)F)NC(=O)c1cc(NC(=O)C2C(c3cc(Cl)cc(Cl)c3)C2(Cl)Cl)ccc1Cl (stereo in doubt) [PF7, trans-2-Chloro-5-(2,2-dichloro-3-(3,5-dichlorophenyl)cyclopropane-1-carboxamido)-N-((2R)-1-((2,2,2-trifluoroethyl)sulfinyl)propan-2-yl)benzamide]
[1]
  YFM % Control (or Mortality) rating: A (80-100)
[2]
  mortality at 50 µg/cm2: 50 to 100%
[3]
  mortality at 50 µg/cm2: 50 to 100%
